Like-named read-outs stand apart in the source and are kept apart here. Each block holds one molecule with its values, some of them ahead of it. Square brackets hold non-standard residues; d marks the D form. Peptide text beside a SMILES is read from it. * marks the point of attachment. 4Abz = Nc1ccc(C(=O)O)cc1; NHOH = ON*
Legend:
[1] = molecular target: T1, hADAM-19 (Homo sapiens, UniProt Q9H013); experiment: Inhibition of α2-M cleavage by hADAM-19 (SDS-PAGE, silver staining); assay type: biochemical
T1 construct: made in house
T1 sequence (Q9H013 26-701 isoform Q9H013-2): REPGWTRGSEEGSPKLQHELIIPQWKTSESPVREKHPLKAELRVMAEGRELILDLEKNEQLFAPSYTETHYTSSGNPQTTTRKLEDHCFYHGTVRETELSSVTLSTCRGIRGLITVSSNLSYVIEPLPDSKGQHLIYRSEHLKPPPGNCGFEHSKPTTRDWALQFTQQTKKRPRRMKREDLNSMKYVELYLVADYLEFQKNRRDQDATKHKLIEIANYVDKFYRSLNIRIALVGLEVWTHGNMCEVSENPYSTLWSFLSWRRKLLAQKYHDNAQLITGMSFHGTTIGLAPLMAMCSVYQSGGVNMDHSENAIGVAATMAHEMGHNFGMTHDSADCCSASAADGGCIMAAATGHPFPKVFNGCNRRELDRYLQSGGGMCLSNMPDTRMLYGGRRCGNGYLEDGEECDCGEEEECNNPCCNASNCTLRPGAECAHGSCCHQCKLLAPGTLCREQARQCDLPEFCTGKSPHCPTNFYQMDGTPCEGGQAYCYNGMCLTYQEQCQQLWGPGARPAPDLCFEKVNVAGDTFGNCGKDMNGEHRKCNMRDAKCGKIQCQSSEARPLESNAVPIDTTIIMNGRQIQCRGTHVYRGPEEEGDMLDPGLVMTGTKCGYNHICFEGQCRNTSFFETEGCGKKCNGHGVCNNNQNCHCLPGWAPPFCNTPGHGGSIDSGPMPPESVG
Procedure: 20 mM EDTA, 20 rmiM EGTA, 10 mM HgCl2, 1 miM TIMP-1,-2 (TIMP: hADAM-19 molar ratio was 100:1) and three commercial (CALBIOCHEM) small molecule human MMP inhibitors were used to inhibit α2-M cleavage by hADAM-19. […] Briefly, different concentrations of those inhibitors were mixed with 7.5 μl of hADAM-19 (50 μg/ml) in 22.9 μl of 1× HEPES buffer (50 mM HEPES, pH 7.5, 0.2 M NaCl, 10 mM CaCl2, 25 μM ZnCl, and 0.05%Brij-35) and incubated at room temperature (24° C.) for 2-hr, then 7.1 μl of substrate α2-M (0.2 unit/ml) were added and incubated at 37° C. for 20-hr. The reactions were stopped by adding 4× sample bufer and boiled immediately for 5 minutes. After SDS-PAGE, the protein bands were visualized by silver staining.

[2] = system: viruses containing the K103N mutation; conditions: cited from earlier work
[3] = system: HIV; conditions: cited from earlier work
[4] = molecular target: MMP-1 (Homo sapiens, UniProt P03956); conditions: commercial (CALBIOCHEM) inhibitor data; read-out: IC50 against MMP-1; cited from earlier work
MMP-1, sequence (P03956 100-469): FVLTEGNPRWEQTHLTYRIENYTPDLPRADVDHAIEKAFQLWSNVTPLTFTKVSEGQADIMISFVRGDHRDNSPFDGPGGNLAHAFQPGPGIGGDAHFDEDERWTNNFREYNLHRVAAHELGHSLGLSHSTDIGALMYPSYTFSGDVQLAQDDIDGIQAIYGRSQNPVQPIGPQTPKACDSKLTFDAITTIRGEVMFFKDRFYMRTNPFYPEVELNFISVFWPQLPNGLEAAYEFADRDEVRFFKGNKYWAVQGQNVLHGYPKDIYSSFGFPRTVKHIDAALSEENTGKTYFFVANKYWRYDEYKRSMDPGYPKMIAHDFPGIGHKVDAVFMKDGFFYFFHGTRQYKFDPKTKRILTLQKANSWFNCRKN

[5] = molecular target: MMP-8 (Homo sapiens, UniProt P22894); conditions: commercial (CALBIOCHEM) inhibitor data; read-out: IC50 against MMP-8; cited from earlier work
MMP-8, sequence (P22894 101-467): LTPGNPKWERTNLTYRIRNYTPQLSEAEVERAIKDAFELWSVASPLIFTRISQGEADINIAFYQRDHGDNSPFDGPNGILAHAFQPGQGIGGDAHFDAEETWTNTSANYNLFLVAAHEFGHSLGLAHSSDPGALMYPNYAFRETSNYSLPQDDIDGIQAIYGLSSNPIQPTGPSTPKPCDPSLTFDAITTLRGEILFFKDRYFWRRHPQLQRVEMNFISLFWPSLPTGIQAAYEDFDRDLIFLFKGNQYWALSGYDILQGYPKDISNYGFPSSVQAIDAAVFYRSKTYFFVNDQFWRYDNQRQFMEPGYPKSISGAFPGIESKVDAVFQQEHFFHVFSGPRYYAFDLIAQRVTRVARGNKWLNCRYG

[6] = molecular target: MMP-3 (Homo sapiens, UniProt P08254); conditions: commercial (CALBIOCHEM) inhibitor data; read-out: IC50 against MMP-3; cited from earlier work
MMP-3, sequence (P08254 100-477): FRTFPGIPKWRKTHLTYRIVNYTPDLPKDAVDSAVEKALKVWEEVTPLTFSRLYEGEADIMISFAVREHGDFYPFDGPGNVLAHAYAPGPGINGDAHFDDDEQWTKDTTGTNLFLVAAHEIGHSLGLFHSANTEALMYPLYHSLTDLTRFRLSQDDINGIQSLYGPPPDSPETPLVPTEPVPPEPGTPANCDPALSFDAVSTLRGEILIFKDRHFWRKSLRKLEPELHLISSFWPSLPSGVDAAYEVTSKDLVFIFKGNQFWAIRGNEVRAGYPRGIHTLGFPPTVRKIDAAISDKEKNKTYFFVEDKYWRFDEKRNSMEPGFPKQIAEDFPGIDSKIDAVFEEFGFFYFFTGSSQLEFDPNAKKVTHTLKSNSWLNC

[7] = molecular target: MMP-9 (Homo sapiens, UniProt P14780); conditions: commercial (CALBIOCHEM) inhibitor data; read-out: IC50 against MMP-9; cited from earlier work
MMP-9, sequence (P14780 94-707): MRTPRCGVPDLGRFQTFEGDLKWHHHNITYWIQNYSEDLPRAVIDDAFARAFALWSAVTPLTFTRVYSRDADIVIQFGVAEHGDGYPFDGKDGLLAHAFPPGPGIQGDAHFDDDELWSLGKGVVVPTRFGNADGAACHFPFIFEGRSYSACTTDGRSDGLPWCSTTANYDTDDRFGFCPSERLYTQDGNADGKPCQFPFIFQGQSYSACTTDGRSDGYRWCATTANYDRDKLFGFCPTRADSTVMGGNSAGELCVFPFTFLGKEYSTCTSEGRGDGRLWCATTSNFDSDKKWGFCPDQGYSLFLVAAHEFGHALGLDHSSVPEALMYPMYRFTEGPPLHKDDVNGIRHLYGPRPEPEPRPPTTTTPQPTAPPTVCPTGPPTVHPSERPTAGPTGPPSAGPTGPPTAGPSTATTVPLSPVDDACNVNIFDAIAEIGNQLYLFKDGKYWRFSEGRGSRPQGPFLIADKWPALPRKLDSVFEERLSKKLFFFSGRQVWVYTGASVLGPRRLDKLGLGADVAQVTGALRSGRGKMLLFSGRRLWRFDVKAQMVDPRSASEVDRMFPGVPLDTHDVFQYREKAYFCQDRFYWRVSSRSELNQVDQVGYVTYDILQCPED

[8] = molecular target: T2, Bovine plasma alpha-2-macroglobulin (UniProt Q7SIH1)
T2 sequence: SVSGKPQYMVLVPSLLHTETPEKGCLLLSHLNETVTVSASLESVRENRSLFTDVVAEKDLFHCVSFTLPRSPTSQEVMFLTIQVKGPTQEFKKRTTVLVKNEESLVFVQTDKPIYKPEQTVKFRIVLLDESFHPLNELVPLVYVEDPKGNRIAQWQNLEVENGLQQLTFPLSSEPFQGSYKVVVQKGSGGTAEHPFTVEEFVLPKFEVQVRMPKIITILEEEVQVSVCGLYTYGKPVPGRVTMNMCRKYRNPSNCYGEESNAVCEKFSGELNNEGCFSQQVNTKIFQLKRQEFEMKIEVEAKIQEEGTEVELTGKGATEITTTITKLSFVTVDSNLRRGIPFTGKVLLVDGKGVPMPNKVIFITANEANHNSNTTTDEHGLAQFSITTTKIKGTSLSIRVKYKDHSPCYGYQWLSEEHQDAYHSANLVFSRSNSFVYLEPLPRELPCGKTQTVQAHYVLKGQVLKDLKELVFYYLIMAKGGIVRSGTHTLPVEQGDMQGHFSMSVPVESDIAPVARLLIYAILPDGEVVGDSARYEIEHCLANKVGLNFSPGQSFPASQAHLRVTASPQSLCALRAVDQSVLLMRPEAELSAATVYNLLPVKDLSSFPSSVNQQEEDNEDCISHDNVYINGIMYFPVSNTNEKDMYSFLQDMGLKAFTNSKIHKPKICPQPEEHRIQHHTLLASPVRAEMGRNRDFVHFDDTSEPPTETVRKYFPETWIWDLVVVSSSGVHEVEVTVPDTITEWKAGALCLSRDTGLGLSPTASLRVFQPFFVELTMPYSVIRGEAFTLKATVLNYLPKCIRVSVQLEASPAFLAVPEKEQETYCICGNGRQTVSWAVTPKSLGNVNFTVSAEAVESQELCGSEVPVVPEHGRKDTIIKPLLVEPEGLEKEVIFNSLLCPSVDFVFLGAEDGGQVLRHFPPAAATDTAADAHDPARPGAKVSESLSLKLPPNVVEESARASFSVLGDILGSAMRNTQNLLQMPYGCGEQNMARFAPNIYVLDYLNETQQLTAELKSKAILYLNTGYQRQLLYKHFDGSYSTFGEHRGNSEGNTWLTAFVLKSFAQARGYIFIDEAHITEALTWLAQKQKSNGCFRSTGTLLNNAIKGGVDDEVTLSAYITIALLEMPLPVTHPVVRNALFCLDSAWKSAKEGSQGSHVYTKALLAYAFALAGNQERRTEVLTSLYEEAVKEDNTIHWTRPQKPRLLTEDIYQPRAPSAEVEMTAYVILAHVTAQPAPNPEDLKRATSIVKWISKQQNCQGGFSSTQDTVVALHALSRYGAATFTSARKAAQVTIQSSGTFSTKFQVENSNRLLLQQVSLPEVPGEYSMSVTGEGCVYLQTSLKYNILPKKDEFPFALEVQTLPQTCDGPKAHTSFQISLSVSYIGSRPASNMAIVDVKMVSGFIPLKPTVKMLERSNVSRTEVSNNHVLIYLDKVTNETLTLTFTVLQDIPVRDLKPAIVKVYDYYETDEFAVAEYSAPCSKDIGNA

[9] = molecular target: Mca fluorogenic peptide substrate M-1985
[10] = molecular target: rat tail tendon type I gelatin
[11] = molecular target: Mca fluorogenic peptide substrate M-2225
[12] = molecular target: T3, Bovine plasma alpha-2-macroglobulin, Q7SIH1
T3 chain: T2 sequence

[13] = molecular target: Mca fluorogenic peptide substrate M-2105
[14] = molecular target: Mca fluorogenic peptide substrate M-2255
[15] = molecular target: Mca fluorogenic peptide substrate M-2110
[16] = molecular target: bovine casein
[17] = summary statement, concentration not given

blockage of hADAM-19 digestion of α2-M ([1]; 20 mM inhibitor): completely blocked | blockage of hADAM-19 proteolytic activity against α2-M [1, 17]: blocked completely
Molecule: O=C(O)CN(CCOCCOCCN(CC(=O)O)CC(=O)O)CC(=O)O [EGTA]

Molecule: COc1ccc(S(=O)(=O)N(CC(=O)NO)CC(C)C)cc1 [MMP-3 inhibitor II, N-Isobutyl-N-(4-methoxyphenylsulfonyl)-glycylhydroxamic acid]
blockage of hADAM-19 digestion of α2-M ([1]; 100 µM inhibitor): partially blocked | blockage of hADAM-19 digestion of α2-M ([1]; 1 mM inhibitor): partially blocked

blockage of hADAM-19 proteolytic activity against α2-M [1, 17]: not blocked
Molecule: TIMP-1: tissue inhibitor of metalloproteinases
blockage of hADAM-19 digestion of α2-M ([1]; TIMP:hADAM-19 molar ratio of 100:1): Neither TIMP-1 or TIMP-2 at TIMP:hADAM-1 9 molar ratio of 100:1 were able to block

Molecule: CC[C@H]1C(=O)Nc2ccc(F)cc2N1C(=O)OC(C)C [GW-420867X]
activity against K103N mutants [2]: active against K103N mutants | activity relative to HBY097 ([3]; greater activity than HBY097): 25 fold

Molecule: O=C(O)CN(CCN(CC(=O)O)CC(=O)O)CC(=O)O [EDTA]
blockage of hADAM-19 digestion of α2-M [1]: completely blocked | blockage of hADAM-19 proteolytic activity against α2-M [1]: blocked completely

Molecule: CC(C)c1nc(COC(N)=O)n(Cc2ccncc2)c1Sc1cc(Cl)cc(Cl)c1 [CAPRAVIRINE]
activity against K103N mutants [2]: activity against viruses containing the K103N mutation

blockage of hADAM-19 proteolytic activity against α2-M [1, 17]: blocked completely
Molecule: c1cnc2c(c1)ccc1cccnc12 [1,10-phenathroline]

Molecule: [Cl][Hg][Cl] [HgCl2]
blockage of hADAM-19 digestion of α2-M ([1]; 10 mM inhibitor): completely blocked | blockage of hADAM-19 proteolytic activity against α2-M [1, 17]: blocked completely

Molecule: C[C@H](Sc1nc(N)cc(Cl)n1)c1cc2ccoc2cn1 [PNU-142721]
activity against K103N mutants [2]: active against K103N mutants | activity relative to delavirdine ([3]; greater activity than its predecessor delavirdine): 20- to 50 fold

blockage of hADAM-19 digestion of α2-M ([1]; 1 mM inhibitor): did not block
Molecule: CC(C)C[C@@H](NC(=O)[C@@H]1CCCN1C(=O)CNC(=O)c1ccc(N)cc1)C(=O)N[C@H](C)C(=O)NO [MMP inhibitor I] (H-[4Abz]GP[dL][dA]-{NHOH})
IC50 [4]: 1 µM | IC50 [5]: 1 µM | IC50 [6]: 150 µM | IC50 [7]: 30 µM

Molecule: Nc1nc(=O)n([C@@H]2CS[C@H](CO)O2)cc1F [COVIRACIL, emtricitabine]
activity in vitro relative to lamivudine (3TC) ([3]; greater activity than lamivudine (3TC)): 3- to 10 fold

Molecule: Trypsin
cleavage of α2-M (SDS-PAGE, silver staining) [8]: Trypsin was used as a positive proteinase control to cleave α2-M and it generated a 72 kDa major band and a 35 kDa minor band

B1: Flag-tagged hADAM-19 protein (residues 26-701 of SEQ ID NO: 9) (protein)
chain: T1 sequence (Q9H013 26-701 isoform Q9H013-2)
fluorogenic peptide substrate cleavage [9]: Neither were the 5 different synthetic fluorogenic peptide substrates listed in the Materials and Methods | substrate digestion [10]: rat tail tendon type I gelatin and bovine casein, were not dissolved by hADAM-19 | fluorogenic peptide substrate cleavage [11]: Neither were the 5 different synthetic fluorogenic peptide substrates listed in the Materials and Methods | cleavage of α2-M (SDS-PAGE, silver staining) [12]: Human hADAM-19 cleaved α2-M to yield new bands of 105 kDa and a 72 kDa | proteolysis of alpha-2 macroglobulin [12]: a polypeptide corresponding to this gene displayed metal-dependant proteolysis of alpha-2 macroglobulin | fluorogenic peptide substrate cleavage [13]: Neither were the 5 different synthetic fluorogenic peptide substrates listed in the Materials and Methods | fluorogenic peptide substrate cleavage [14]: Neither were the 5 different synthetic fluorogenic peptide substrates listed in the Materials and Methods | fluorogenic peptide substrate cleavage [15]: Neither were the 5 different synthetic fluorogenic peptide substrates listed in the Materials and Methods | substrate digestion [16]: rat tail tendon type I gelatin and bovine casein, were not dissolved by hADAM-19

From patent US20020173640A1, “ADAM polynucleotides, polypeptides, and antibodies” (Human Genome Sciences, Inc., priority 1999, published 2002)
